pKd: −log10 of the molar value. Like-named read-outs stand apart in the source and are kept apart here. *1 amine or outer side, *2 acyl side, *3 side chain or, on linkers, in order; H or OH if unused. Where a SMILES comes first, the peptide text is derived from it. Bridges are numbered along the chain shown (N, C = ends). [ ]: non-standard residue; d: D form. The star is where a group is joined. X39 = CC(C)CCN([C@@H](Cc1ccc(C(F)(F)F)cc1)C(=O)[*:2])[*:1]; hPhe(3-Cl-4-CF3) = N[C@@H](CCc1ccc(C(F)(F)F)c(Cl)c1)C(=O)O; NPrPhe(4-CF3) = CCCN[C@@H](Cc1ccc(C(F)(F)F)cc1)C(=O)O; Morpholine(3S-CO) = O=C(O)[C@@H]1COCCN1; NMeGly(cPent) = CN[C@H](C(=O)O)C1CCCC1; Hyp = O=C(O)[C@@H]1C[C@@H](O)CN1; NMeD = CN[C@@H](CC(=O)O)C(=O)O; NMeL = CN[C@@H](CC(C)C)C(=O)O; Morpholide = C1CN(*)CCO1; Ac5c = NC1(C(=O)O)CCCC1; Aze = O=C(O)[C@@H]1CCN1; Ac4c = NC1(C(=O)O)CCC1; NEtG = CCNCC(=O)O; Sar = CNCC(=O)O
How the values were obtained:
[1] = molecular target: GDP-bound NRAS wild-type protein (Homo sapiens, UniProt P01111); assay: Binding to NRAS by surface plasmon resonance (SPR), Single Cycle Kinetics
[2] = molecular target: GDP-bound HRAS wild-type protein (Homo sapiens, UniProt P01112); assay: Binding to HRAS by surface plasmon resonance (SPR), Single Cycle Kinetics
[3] = molecular target: GDP-bound KRAS wild-type protein (Homo sapiens, UniProt P01116); assay: Binding to KRAS by surface plasmon resonance (SPR), Single Cycle Kinetics; settings: GDP-bound KRAS wild-type protein, read-out: KRAS KD
[4] = SPR, GDP-bound NRAS wild-type protein vs GDP-bound KRAS wild-type protein
[5] = SPR, GDP-bound HRAS wild-type protein vs GDP-bound KRAS wild-type protein
[6] = SPR Single Cycle Kinetics, 1:1 binding model

Chain of GDP-bound NRAS wild-type protein (P01111 whole entry): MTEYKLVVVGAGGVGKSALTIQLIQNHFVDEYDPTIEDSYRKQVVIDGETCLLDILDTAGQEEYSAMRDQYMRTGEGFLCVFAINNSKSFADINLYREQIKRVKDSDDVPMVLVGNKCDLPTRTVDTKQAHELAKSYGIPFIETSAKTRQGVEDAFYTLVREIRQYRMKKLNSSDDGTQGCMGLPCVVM
Chain of GDP-bound KRAS wild-type protein (P01116 whole entry): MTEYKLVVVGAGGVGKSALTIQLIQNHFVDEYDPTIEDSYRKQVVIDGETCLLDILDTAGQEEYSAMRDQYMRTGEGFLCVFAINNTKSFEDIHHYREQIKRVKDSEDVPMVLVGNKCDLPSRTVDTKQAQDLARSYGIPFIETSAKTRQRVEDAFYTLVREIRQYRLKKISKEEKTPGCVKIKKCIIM
Chain of GDP-bound HRAS wild-type protein (P01112 whole entry): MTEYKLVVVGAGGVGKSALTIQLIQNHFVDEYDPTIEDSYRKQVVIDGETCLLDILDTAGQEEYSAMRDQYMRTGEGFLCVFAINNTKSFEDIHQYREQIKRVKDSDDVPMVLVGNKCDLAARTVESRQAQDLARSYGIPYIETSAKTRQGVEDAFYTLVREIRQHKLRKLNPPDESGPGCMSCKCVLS

Row | SMILES | NRAS/KRAS (ratio of KD value for NRAS to KD value for KRAS) [1, 4] | HRAS/KRAS (ratio of KD value for HRAS to KD value for KRAS) [2, 5] | pKd [3, 6] | NRAS/KRAS (ratio of KD value with respect to NRAS to KD value with respect to KRAS) [1, 4] | HRAS/KRAS (ratio of KD value with respect to HRAS to KD value with respect to KRAS) [2, 5] | pKd ([3]; SPR, Single Cycle Kinetics) | NRAS/KRAS (ratio of KD value with respect to GDP-bound NRAS wild-type protein to KD value with respect to KRAS) ([1]; SPR KD ratio NRAS/KRAS, class symbols) | HRAS/KRAS (ratio of KD value with respect to GDP-bound HRAS wild-type protein to KD value with respect to KRAS) ([2]; SPR KD ratio HRAS/KRAS, class symbols)
1 | CCCN1C(=O)CN(C)C(=O)[C@@H]2CCN2C(=O)[C@H]([C@@H](C)CC)NC(=O)[C@H](CC(C)C)N(C)C(=O)C[C@@H](C(=O)N2CCOCC2)N(C)C(=O)[C@H](C2CCCC2)N(C)C(=O)C2(CCCC2)NC(=O)[C@@H]2C[C@@H](OCC)CN2C(=O)[C@H](CCc2ccc(C(F)(F)F)c(Cl)c2)NC(=O)CN(C)C(=O)[C@@H]1Cc1ccc(C(F)(F)F)cc1 [PP0310] ([NMeL]I[Aze][Sar][NPrPhe(4-CF3)][Sar][hPhe(3-Cl-4-CF3)][Hyp](Et)[Ac5c][NMeGly(cPent)][NMeD]-Morpholide; lactam N-11) | B (a compound having 3 or more and less than 10 is denoted as B) | C (A compound having a KD ratio of 0.1 or more and less than 3 is denoted as C) | 9.35 | – | – | – | – | –
2 | CC[C@H](C)[C@@H]1NC(=O)[C@H](CC(C)C)N(C)C(=O)C[C@@H](C(=O)N2CCOCC2)N(C)C(=O)[C@H](C2CCCC2)N(C)C(=O)C2(CCCC2)NC(=O)[C@@H]2CCCN2C(=O)[C@H](CCc2ccc(C(F)(F)F)c(Cl)c2)NC(=O)CN(C)C(=O)[C@H](Cc2ccc(C(F)(F)F)cc2)N(CCC(C)C)C(=O)CN(C)C(=O)CN(C)C1=O [PP0126] ([NMeL]I[Sar][Sar][X39][Sar][hPhe(3-Cl-4-CF3)]P[Ac5c][NMeGly(cPent)][NMeD]-Morpholide; lactam N-11) | C (A compound having a KD ratio of 0.1 or more and less than 3 is denoted as C) | C (A compound having a KD ratio of 0.1 or more and less than 3 is denoted as C) | 9.37 | – | – | – | – | –
3 | CCCN1C(=O)CN(C)C(=O)CN(CC)C(=O)[C@H]([C@@H](C)CC)NC(=O)[C@H](CC(C)C)N(C)C(=O)C[C@@H](C(=O)N2CCOCC2)N(C)C(=O)[C@H](C2CCCC2)N(C)C(=O)C2(CCCC2)NC(=O)[C@@H]2COCCN2C(=O)[C@H](CCc2ccc(C(F)(F)F)c(Cl)c2)NC(=O)CN(C)C(=O)[C@@H]1Cc1ccc(C(F)(F)F)cc1 [PP0299] ([NMeL]I[NEtG][Sar][NPrPhe(4-CF3)][Sar][hPhe(3-Cl-4-CF3)][Morpholine(3S-CO)][Ac5c][NMeGly(cPent)][NMeD]-Morpholide; lactam N-11) | B (a compound having 3 or more and less than 10 is denoted as B) | B (a compound having 3 or more and less than 10 is denoted as B) | 8.85 | – | – | – | – | –
4 | CCCN1C(=O)[C@@H]2CCN2C(=O)CN(C)C(=O)[C@H]([C@@H](C)CC)NC(=O)[C@H](CC(C)C)N(C)C(=O)C[C@@H](C(=O)N2CCOCC2)N(C)C(=O)[C@H](C2CCCC2)N(C)C(=O)C2(CCC2)NC(=O)[C@@H]2C[C@@H](OCC)CN2C(=O)[C@H](CCc2ccc(C(F)(F)F)c(Cl)c2)NC(=O)CN(C)C(=O)[C@@H]1Cc1ccc(C(F)(F)F)cc1 [PP0411] ([NMeL]I[Sar][Aze][NPrPhe(4-CF3)][Sar][hPhe(3-Cl-4-CF3)][Hyp](Et)[Ac4c][NMeGly(cPent)][NMeD]-Morpholide; lactam N-11) | – | – | 10.34 | C (A compound having a KD ratio of 0.1 or more and less than 3 is denoted as C) | C (A compound having a KD ratio of 0.1 or more and less than 3 is denoted as C) | – | – | –
5 | CCO[C@@H]1C[C@H]2C(=O)NC3(CCC3)C(=O)N(C)[C@@H](C3CCCC3)C(=O)N(C)[C@H](C(=O)N(C)C)CC(=O)N(C)[C@@H](Cc3cccs3)C(=O)N[C@@H]([C@@H](C)CC)C(=O)N(C)CC(=O)N(C)[C@H]3C/C=C\CCN(C3=O)[C@@H](Cc3ccc(C(F)(F)F)cc3)C(=O)N(C)CC(=O)N[C@@H](CCc3cc(F)c(C(F)(F)F)c(F)c3)C(=O)N2C1 [PP1123, (2S,8S,12R,14S,20S,23S,27S,30S,36S,38Z)-20-cyclopentyl-8-[2-[3,5-difluoro-4-(trifluoromethyl)phenyl]ethyl]-12-ethoxy-N,N,4,19,22,26,32,35-octamethyl-30-[(1S)-1-methylpropyl]-3,6,9,15,18,21,25,28,31,34,42-undecaoxo-27-(2-thienylmethyl)-2-[[4-(trifluoromethyl)phenyl]methyl]spiro[1,4,7,10,16,19,22,26,29,32,35-undecazatricyclo[34.5.1.0^10,14]dotetracont-38-ene-17,1′-cyclobutane]-23-carboxamide] | A (a compound having 10 or more and less than 20 is denoted as A) | B (a compound having 3 or more and less than 10 is denoted as B) | – | – | – | 10.14 | – | –
6 | CCCN(C)C(=O)[C@@H]1CC(=O)N(C)[C@@H](CC)C(=O)N[C@@H]([C@@H](C)CC)C(=O)N(C)CC(=O)N(C)[C@H]2C/C=C\CCN(C2=O)[C@@H](Cc2ccc(C(F)(F)F)cc2)C(=O)N(C)CC(=O)N[C@@H](CCc2cc(F)c(C(F)(F)F)c(F)c2)C(=O)N2C[C@H](OCC3CC3)C[C@H]2C(=O)NC2(CCC2)C(=O)N(C)[C@@H](C2CCCC2)C(=O)N1C [PP2913] | – | – | 9.77 | – | – | – | A (a compound having 10 or more and less than 20 is denoted as A) | A (a compound having 10 or more and less than 20 is denoted as A)
